Here are results for 22 molecules from patent US20250186600A1, “EXCIPIENT COMPOUNDS FOR PROTEIN FORMULATIONS” (Comera Life Sciences, Inc., priority 2020, published 2025).

Data set [1] has as its system omalizumab. Kind of data set: DLS viscosity of concentrated omalizumab (Example 53). Conditions: concentrated omalizumab 9 parts : 1 part excipient stock (1 M or solubility limit), 20 mM HisHCl pH 6. Format: physicochemical. How it is done: O-(octylphosphoryl)choline was purchased from Sigma Aldrich (St. […] O-(octylphosphoryl)choline was used as a stock excipient without additional preparation. […] In this example, the ratio of apparent radius to the actual radius of the gold nanoparticle was multiplied by the viscosity of water at 25° C. to calculate the viscosity of the protein formulation in centipoise (cP).

Data set [2] relates to omalizumab. Kind of data set: DLS viscosity of concentrated omalizumab (Example 54). Format: physicochemical. To be noted: concentrated omalizumab 9 parts : 1 part excipient stock (1 M or solubility limit), 20 mM HisHCl pH 6. The procedure:
Hordenine HCl was purchased from Bulk Supplements (Henderson, NV).
The concentrated protein formulation was then combined with a stock excipient solution or a control at a ratio of 9 parts protein: 1 part excipient solution or buffer (for the control), and aliquots were added to the wells of a 384 well microplate (Aurora Microplates, Whitefish, MT). […] After the microplate was shaken, 2 microliters of a 5-fold dilution of polyethylene glycol surface-modified gold nanoparticles having a diameter of 100 nm (nanoComposix, San Diego, CA) in 20 mM His HCl were added to each sample well. […] In this example, the ratio of apparent radius to the actual radius of the gold nanoparticle was multiplied by the viscosity of water at 25° C. to calculate the viscosity of the protein formulation in centipoise (cP).

For data set [3], the system named is ustekinumab. The data set can be described thus: Stabilization at low pH, Sypro orange fluorescence (Example 45). To be noted: excipient 5 mg/mL, ustekinumab 1 mg/mL, glycine acidification buffer pH 2.6, Sypro orange fluorescence.
Data set [4] concerns omalizumab. The data set can be described thus: Freeze-thaw stability, light scattering at 350 nm (Example 48). Format: physicochemical. To be noted: excipient 5 mg/mL, omalizumab 5 mg/mL, 20 mM histidine pH 6.0, at least 5 freeze (−80° C.)/thaw cycles.
The subject of data set [5] is bovine gamma globulin (BGG). Kind of data set: Normalized viscosity of BGG with caffeine and a secondary excipient (Example 40). It is filed as physicochemical. To be noted: BGG about 280 mg/mL, 20 mM histidine pH 6, 25° C.
For a further data set, the system named is infliximab. The data set can be described thus: Thermal stability at 50° C. with caffeine and excipients, SE-HPLC (Example 63). Format: physicochemical. Conditions: excipient 0.5 M, caffeine 50 mM, infliximab 10 mg/mL, 5 mM phosphate pH 7.5, 50° C., 180 min. How it is done: Therapeutic proteins stress leads to aggregation of the protein and a decrease in the active native species. […] The aliquots were withdrawn at 0 min, 90 min and 180 min. […] Diode array detector.

Data set [6] in a line: Caffeine solubility with co-solutes during refrigerated storage (Example 61). It is filed as physicochemical. Further details: key: (PPT)—precipitate observed; (—)—clear solution observed. To be noted: 50 mM co-solute, 25 mM histidine pH 6, stored 2 to 5° C. The procedure:
The resulting microplates were then sealed with microplate tape and stored in a refrigerator with the temperature maintained in the range of 2 to 5° C. Over the course of storage, the microplates were visually observed for evidence of precipitate in the well.

The subject of data set [7] is ustekinumab. The data set can be described thus: Urea denaturation, Sypro orange fluorescence (Example 44). It is filed as physicochemical. Conditions: excipient 5 mg/mL, ustekinumab 1 mg/mL, 6M urea, 20 mM histidine pH 6.0, Sypro orange fluorescence. From the text: It is known that urea denatures proteins in solution and causes them to unfold. The screening methodology in this example involved adding a specific concentration of urea to a therapeutic protein solution such as ustekinumab. […] One method to track protein unfolding involves the use of extrinsic fluorescent dyes such as Sypro orange. Sypro orange binds to hydrophobic regions in the unfolded protein structure, leading to an increase in the fluorescence signal observed. Measuring the differences in the fluorescence intensity of unfolded protein-Sypro orange complex in presence of different excipients thus allows one to identify any stabilizing effects.
All excipients used in this Example, listed in Table 45 below, were of the highest purity, and were obtained from Sigma Aldrich (St. Louis, MO) or Cayman Chemical (Ann Arbor, MI). […] This urea stock solution was then added to a final concentration of 6M to produce the test solutions (excipient plus protein plus urea). […] The pH of the mixture was rechecked and confirmed to be at pH 6.0. The test solutions were allowed to incubate at room temperature for 30 min.

[8] abbreviates: Excipient A caffeine 15 mg/mL + Excipient B 15 mg/mL.
The mark [9] stands for this setting: Excipient A caffeine 15 mg/mL + Excipient B 20 mg/mL.

On to `CCCCn1ccnc1` [Excipient 1-butylimidazole, 1-butylimidazole], for which, in the data set on omalizumab [1], the “DLS Viscosity, Replicate 1” value came to 16.8 cP and the “DLS Viscosity, Replicate 2” value turned out to be 15.6 cP. Moreover, in the data set on omalizumab [2], the “DLS Viscosity, Replicate 1” value is given as 40.5 cP and the “DLS Viscosity, Replicate 2” value amounted to 74.0 cP.

For the molecule `OC[C@H](O)[C@@H](O)[C@H](O)[C@@H](O)CO` [Iditol], the “% change in stability” value in the data set with ustekinumab [3] is on record as 11.6%. Besides, the “% reduction in light scattering at 350 nm vs. control” value (shortened to “% reduction in light scattering”) in the data set with omalizumab [4] is recorded as 11.7%.

Regarding `O=C(O)CN(CCN(CC(=O)O)CC(=O)O)CCN(CC(=O)O)CC(=O)O` [DTPA], the “% reduction in light scattering” value with omalizumab [4] is listed as 17.2%.

`OC[C@H]1O[C@@](CO)(O[C@H]2O[C@H](CO)[C@@H](O)[C@H](O)[C@H]2O)[C@@H](O[C@H]2O[C@H](CO)[C@@H](O)[C@H](O)[C@H]2O)[C@@H]1O` [Melezitose]: the “% reduction in light scattering” value in the data set on omalizumab [4] amounted to 7.4%.

For `NC(=O)c1cccnc1` [Niacinamide], the “Normalized Viscosity” value in data set [5] (setting [8]) is 0.63.

As for Maltotriose, in the data set with infliximab, the “% change compared to control” value worked out at 12.6%.

With `O=C(CO)[C@@H](O)[C@H](O)[C@H](O)[C@H](O)CO` [seduheptalose], in the data set with omalizumab [4], the “% reduction in light scattering” value is reported as 16.0%.

Turning to `OC[C@@H](O)[C@@H](O)[C@H](O)[C@H](O)CO` [Mannitol], the “% reduction in light scattering” value with omalizumab [4] was determined as 17.8%.

With `N[C@@H](Cc1ccccc1)C(=O)O` [Phenylalanine], in data set [6] (caffeine 7.5 mg/mL), the “Day 1 (visual observation for precipitate)” value was “—”, the “Day 7 (visual observation for precipitate)” value is recorded as “—”, the “Day 18 (visual observation for precipitate)” value is on record as “—” and the “Day 27 (visual observation for precipitate)” value is “—”. In addition, the “Day 56 (visual observation for precipitate)” value in data set [6] (caffeine 7.5 mg/mL) is “—”. In data set [6] (caffeine 10 mg/mL), the “Day 1 (visual observation for precipitate)” value is given as “—”, the “Day 7 (visual observation for precipitate)” value is listed as “—”, the “Day 18 (visual observation for precipitate)” value is on record as “—” and the “Day 27 (visual observation for precipitate)” value is listed as “—”. Moreover, the “Day 56 (visual observation for precipitate)” value in data set [6] (caffeine 10 mg/mL) was “—”. In data set [6] (caffeine 12.5 mg/mL), the “Day 1 (visual observation for precipitate)” value is listed as “—”, the “Day 7 (visual observation for precipitate)” value is on record as “—”, the “Day 18 (visual observation for precipitate)” value is recorded as “—” and the “Day 27 (visual observation for precipitate)” value was “—”. Besides, the “Day 56 (visual observation for precipitate)” value in data set [6] (caffeine 12.5 mg/mL) is on record as “—”. For the same molecule, in data set [6] (caffeine 15 mg/mL), the “Day 1 (visual observation for precipitate)” value is “—”, the “Day 7 (visual observation for precipitate)” value is reported as “—”, the “Day 18 (visual observation for precipitate)” value is reported as “—” and the “Day 27 (visual observation for precipitate)” value is “—”. The “Day 56 (visual observation for precipitate)” value in data set [6] (caffeine 15 mg/mL) is “PPT”. For the same molecule, in data set [6] (caffeine 20 mg/mL), the “Day 1 (visual observation for precipitate)” value is “—”, the “Day 7 (visual observation for precipitate)” value was “PPT”, the “Day 18 (visual observation for precipitate)” value is recorded as “PPT” and the “Day 27 (visual observation for precipitate)” value is “PPT”. In addition, the “Day 56 (visual observation for precipitate)” value in data set [6] (caffeine 20 mg/mL) is “PPT”. For the same molecule, the “Normalized Viscosity” value in data set [5] (setting [9]) is 0.60.

With `OC[C@@H](O)[C@H](O)[C@@H](O)CO` [Xylitol], in the data set with ustekinumab [3], the “% change in stability” value was 0.4%. Also, the “% increased stability” value with ustekinumab [7] worked out at 6.3%. For the same molecule, the “% reduction in light scattering” value with omalizumab [4] is recorded as 10.7%.

As for `C[N+](C)(C)[O-]` [Trimethyl amine N-oxide], the “% change compared to control” value with infliximab turned out to be 10.9%.

As for `OC[C@H]1O[C@H](OC[C@H]2O[C@H](O[C@]3(CO)O[C@H](CO)[C@@H](O)[C@@H]3O)[C@H](O)[C@@H](O)[C@@H]2O)[C@H](O)[C@@H](O)[C@H]1O` [Raffinose], the “% change in stability” value in the data set with ustekinumab [3] was 2.6%. Further, the “% increased stability” value in the data set on ustekinumab [7] is 1.7%. The “% reduction in light scattering” value in the data set on omalizumab [4] was 3.7%.

On to `CCO` [Ethanol], for which, in data set [5] (Excipient A caffeine 15 mg/mL + Excipient B 22 mg/mL), the “Normalized Viscosity” value came to 0.65.

Regarding `CNC[C@H](O)[C@@H](O)[C@H](O)[C@H](O)CO` [Meglumine], the “% change in stability” value in the data set on ustekinumab [3] worked out at 41.8%. The “% reduction in light scattering” value with omalizumab [4] is given as 15.3%.

On to `CC(=O)[O-].[Na+]` [Sodium acetate], for which the “Normalized Viscosity” value in data set [5] (Excipient A caffeine 15 mg/mL + Excipient B 12 mg/mL) turned out to be 0.77.

For `CCCCCCn1ccnc1` [Excipient 1-hexylimidazole, 1-hexylimidazole], in the data set on omalizumab [1], the “DLS Viscosity, Replicate 1” value is reported as 13.6 cP and the “DLS Viscosity, Replicate 2” value worked out at 14.0 cP. In the data set on omalizumab [2], the “DLS Viscosity, Replicate 1” value came to 27.0 cP and the “DLS Viscosity, Replicate 2” value is recorded as 33.1 cP.

As to `NC(=O)c1ccncc1` [Isonicotinamide], the “% change in stability” value in the data set on ustekinumab [3] stood at 65.4%. In addition, the “% reduction in light scattering” value in the data set with omalizumab [4] worked out at 4.8%.

As to `O=C(CO)[C@H](O)[C@H](O)[C@H](O)CO` [Psicose], the “% change in stability” value in the data set on ustekinumab [3] was found to be 1.1%. Also, in the data set on omalizumab [4], the “% reduction in light scattering” value is 15.3%.

Regarding `CS(C)(=O)=O` [Dimethyl sulfone, dimethyl sulfone], the “Normalized Viscosity” value in data set [5] (Excipient A caffeine 15 mg/mL + Excipient B 25 mg/mL) is 0.65.

In the case of `CC(C)C[C@H](N)C(=O)O` [Leucine], in data set [5] (setting [9]), the “Normalized Viscosity” value stood at 0.69.

Take `O.O.[Ca+2].[Cl-].[Cl-]` [CaCl2 dihydrate]: the “Normalized Viscosity” value in data set [5] (setting [8]) was 0.65.

On to `N[C@@H](CC(=O)O)C(=O)O` [Aspartic acid], for which the “Normalized Viscosity” value in data set [5] (setting [9]) is listed as 0.73.
